Results reported in patent US20080008658A1, “Contrast Agent Formulations for the Visualization of the Lymphatic System” (Bracco Imaging SpA, priority 2004, published 2008).

Assay: Particle size distribution of microbubble suspensions in the Coulter Multisizer, method b (flotation purification from gas-free particles)
Type: physicochemical
Protocol: Dye-containing suspensions of gas-containing ultrasound contrast agents of the invention were analyzed for the particle size distributions in the Coulter® Multisizer (Beckman Coulter Inc. Fullerton, Calif., USA). […] Two methods may be used to determine the distribution of just the gas-containing particles in the compositions of the invention. Method b) The frequency distribution of the diameter of gas-containing particles is obtained after purification of the initial particle suspension from gas-free particles. Purification is achieved by flotation of the gas-containing particles in a centrifuge and substitution of the infranatant containing the gas-free particles with fresh saline. The procedure is executed once or twice depending on the initial contamination by gas-free particles. This method is preferable in those cases wherein the amount of insoluble material in the gas-containing particles exceeds 10% of the total insoluble material, in the initial suspension. The results may be represented either in the form of plots of the frequency distributions (e.g. example 11 and FIG. 1) or as parameters elaborated therefrom, i. e. total microbubble concentration, total microbubble surface, microbubble volume concentration and mean diameter in number (e.g. example 12). […]

- Interference with the regular formation of microbubbles (SonoVue reconstituted with saline containing Evans blue vs regular SonoVue, echographic perspective): negligible
SMILES: Cc1cc(-c2ccc(/N=N/c3ccc4c(S(=O)(=O)O)cc(S(=O)(=O)O)c(N)c4c3O)c(C)c2)ccc1/N=N/c1ccc2c(S(=O)(=O)O)cc(S(=O)(=O)O)c(N)c2c1O [Evans blue]
- Stability of the microbubbles (time 0 vs after 3 h, presence of Evans blue): did not jeopardize the stability of the microbubbles
